Reference: US7629341B2, “Human ADAM-10 inhibitors” (Symphony Evolution, Inc., priority 2003, dated 2009)

Columns and labels:
MMP-13 (collagenase-3) = MMP-13 (collagenase-3) (Homo sapiens, UniProt P45452); test: In vitro metalloprotease inhibition, MMP-13; assay type: biochemical
[1] = biological target: T1, MMP-1 (Fibroblast collagenase) (Homo sapiens, UniProt P03956); test: In vitro metalloprotease inhibition, MMP-1; assay type: biochemical
T1 sequence (P03956 100-469): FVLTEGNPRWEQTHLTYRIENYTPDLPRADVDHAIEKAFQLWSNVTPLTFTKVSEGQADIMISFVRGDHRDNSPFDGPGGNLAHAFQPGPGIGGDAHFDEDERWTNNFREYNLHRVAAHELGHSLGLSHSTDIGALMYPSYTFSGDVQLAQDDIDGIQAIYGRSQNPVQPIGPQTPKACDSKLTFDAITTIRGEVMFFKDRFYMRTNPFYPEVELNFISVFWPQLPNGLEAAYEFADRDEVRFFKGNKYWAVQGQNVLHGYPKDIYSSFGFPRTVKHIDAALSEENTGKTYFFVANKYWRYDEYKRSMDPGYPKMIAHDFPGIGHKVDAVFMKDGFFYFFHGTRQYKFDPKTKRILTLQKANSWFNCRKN
Source text: (§1) Blank cells indicate lack of data only.

[2] = biological target: T2, MMP-2 (72 kDa gelatinase, gelatinase A) (Homo sapiens, UniProt P08253); test: In vitro metalloprotease inhibition, MMP-2; assay type: biochemical
T2 sequence (P08253 110-660): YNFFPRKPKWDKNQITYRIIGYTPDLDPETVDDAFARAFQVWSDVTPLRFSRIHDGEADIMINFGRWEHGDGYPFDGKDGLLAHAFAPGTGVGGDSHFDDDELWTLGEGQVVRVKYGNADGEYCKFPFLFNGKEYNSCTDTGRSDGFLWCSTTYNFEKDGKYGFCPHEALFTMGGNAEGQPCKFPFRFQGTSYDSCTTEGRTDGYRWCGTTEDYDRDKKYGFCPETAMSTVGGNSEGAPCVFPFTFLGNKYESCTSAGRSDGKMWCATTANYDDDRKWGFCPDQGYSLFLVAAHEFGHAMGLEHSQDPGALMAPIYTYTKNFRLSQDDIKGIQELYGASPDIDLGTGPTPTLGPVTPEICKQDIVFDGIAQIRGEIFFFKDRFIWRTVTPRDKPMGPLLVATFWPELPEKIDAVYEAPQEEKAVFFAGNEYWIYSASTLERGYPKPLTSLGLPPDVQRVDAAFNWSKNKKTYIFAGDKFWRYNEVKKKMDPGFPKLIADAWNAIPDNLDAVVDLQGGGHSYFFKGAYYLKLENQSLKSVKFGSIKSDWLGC

[3] = biological target: TACE (TNF-alpha converting enzyme, ADAM-17) (Homo sapiens, UniProt P78536); test: In vitro metalloprotease inhibition, TACE; assay type: biochemical
Source text: as §1

ADAM-10 = biological target: T3, ADAM-10 (UniProt O14672); test: ADAM-10 enzyme assay, cleavage of a fluorogenic 10-residue peptide; assay type: biochemical, mouse or human (mADAM-10 or hADAM-10); conditions: in vitro;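 also: mouse or human ADAM-10 at 5 nM active enzyme, pH 8.0 HEPES buffer with CaCl2 and NP-40, compounds titrated 100 µM down to 0.5 nM, fluorescence read after 16 h at room temperature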
T3 sequence (O14672 1-748): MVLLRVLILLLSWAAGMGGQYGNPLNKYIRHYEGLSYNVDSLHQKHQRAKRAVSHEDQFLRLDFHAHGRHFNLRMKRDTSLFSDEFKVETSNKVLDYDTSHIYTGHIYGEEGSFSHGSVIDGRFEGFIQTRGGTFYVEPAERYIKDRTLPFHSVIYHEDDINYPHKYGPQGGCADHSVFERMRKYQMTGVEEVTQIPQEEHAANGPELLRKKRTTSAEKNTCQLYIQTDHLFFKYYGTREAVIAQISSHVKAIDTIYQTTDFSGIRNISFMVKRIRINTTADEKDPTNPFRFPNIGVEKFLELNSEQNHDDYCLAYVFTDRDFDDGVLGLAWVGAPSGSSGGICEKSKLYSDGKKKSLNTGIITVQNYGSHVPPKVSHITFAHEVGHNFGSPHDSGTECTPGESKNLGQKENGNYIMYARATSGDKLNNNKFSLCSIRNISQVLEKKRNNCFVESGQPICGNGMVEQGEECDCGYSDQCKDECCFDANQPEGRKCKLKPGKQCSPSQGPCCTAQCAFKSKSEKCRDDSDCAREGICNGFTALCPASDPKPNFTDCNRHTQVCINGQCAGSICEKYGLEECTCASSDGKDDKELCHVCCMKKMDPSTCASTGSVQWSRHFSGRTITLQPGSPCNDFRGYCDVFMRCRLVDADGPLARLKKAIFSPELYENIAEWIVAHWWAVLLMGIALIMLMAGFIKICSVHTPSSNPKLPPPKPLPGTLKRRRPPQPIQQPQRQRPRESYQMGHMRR
Description: mADAM-10 or hADAM-10 activity was measured as the ability to cleave a 10-residue peptide (DABCYL-Leu-Leu-Ala-Gln-Lys-*-LeuArg-Ser-Ser-Arg-EDANS). […] Enzyme was diluted to a final active concentration of 5 nM in Buffer A (50 mM HEPES 8.0, 100 mM NaCl, 1 mM CaCl2 and 0.01% NP-40). Serial dilutions for compounds were performed ranging from 100 μM to 0.5 nM using a Beckman Biomek 2000 in polypropylene plates (Greiner). […] This reaction was incubated for 16 hr at RT and fluorescence was read using identical conditions.

MMP-3 (Stromelysin-1) = MMP-3 (Stromelysin-1) (Homo sapiens, UniProt P08254); test: In vitro metalloprotease inhibition, MMP-3; assay type: biochemical
Source text: as §1

[4] = biological target: MMP-8 (Neutrophil collagenase) (Homo sapiens, UniProt P22894); test: In vitro metalloprotease inhibition, MMP-8; assay type: biochemical
[5] = biological target: MMP-9 (92 kDa gelatinase, gelatinase B) (Homo sapiens, UniProt P14780); test: In vitro metalloprotease inhibition, MMP-9; assay type: biochemical
Sequence of MMP-9 (92 kDa gelatinase, gelatinase B) (P14780 94-707, species assumed): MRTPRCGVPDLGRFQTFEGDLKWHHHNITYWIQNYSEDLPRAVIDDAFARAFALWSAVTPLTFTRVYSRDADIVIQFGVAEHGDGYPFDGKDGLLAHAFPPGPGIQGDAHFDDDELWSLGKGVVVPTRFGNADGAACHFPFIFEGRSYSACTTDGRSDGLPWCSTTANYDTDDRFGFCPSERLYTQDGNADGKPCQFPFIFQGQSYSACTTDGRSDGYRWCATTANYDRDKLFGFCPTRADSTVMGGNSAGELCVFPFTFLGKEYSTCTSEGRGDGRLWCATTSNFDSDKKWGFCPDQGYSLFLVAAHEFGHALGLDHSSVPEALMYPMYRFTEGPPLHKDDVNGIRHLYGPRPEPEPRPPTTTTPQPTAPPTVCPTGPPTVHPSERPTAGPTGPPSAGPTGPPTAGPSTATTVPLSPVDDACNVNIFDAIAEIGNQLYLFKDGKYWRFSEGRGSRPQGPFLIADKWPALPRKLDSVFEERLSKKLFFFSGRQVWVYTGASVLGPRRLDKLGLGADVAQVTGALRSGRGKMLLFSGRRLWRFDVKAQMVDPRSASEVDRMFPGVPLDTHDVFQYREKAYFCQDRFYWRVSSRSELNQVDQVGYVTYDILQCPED

Sequence of MMP-3 (Stromelysin-1) (P08254 100-477, species assumed): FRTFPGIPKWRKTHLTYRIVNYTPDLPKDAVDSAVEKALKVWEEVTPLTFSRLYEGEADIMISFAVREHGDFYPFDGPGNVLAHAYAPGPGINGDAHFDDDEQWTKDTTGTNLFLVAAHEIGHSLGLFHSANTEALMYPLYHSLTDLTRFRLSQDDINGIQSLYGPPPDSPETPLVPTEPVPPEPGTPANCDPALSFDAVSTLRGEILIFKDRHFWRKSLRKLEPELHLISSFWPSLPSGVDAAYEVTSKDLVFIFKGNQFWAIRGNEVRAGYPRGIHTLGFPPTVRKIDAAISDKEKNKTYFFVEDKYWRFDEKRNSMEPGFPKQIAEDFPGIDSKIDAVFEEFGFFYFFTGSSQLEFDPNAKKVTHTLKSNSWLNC
Sequence of TACE (TNF-alpha converting enzyme, ADAM-17) (P78536 215-824): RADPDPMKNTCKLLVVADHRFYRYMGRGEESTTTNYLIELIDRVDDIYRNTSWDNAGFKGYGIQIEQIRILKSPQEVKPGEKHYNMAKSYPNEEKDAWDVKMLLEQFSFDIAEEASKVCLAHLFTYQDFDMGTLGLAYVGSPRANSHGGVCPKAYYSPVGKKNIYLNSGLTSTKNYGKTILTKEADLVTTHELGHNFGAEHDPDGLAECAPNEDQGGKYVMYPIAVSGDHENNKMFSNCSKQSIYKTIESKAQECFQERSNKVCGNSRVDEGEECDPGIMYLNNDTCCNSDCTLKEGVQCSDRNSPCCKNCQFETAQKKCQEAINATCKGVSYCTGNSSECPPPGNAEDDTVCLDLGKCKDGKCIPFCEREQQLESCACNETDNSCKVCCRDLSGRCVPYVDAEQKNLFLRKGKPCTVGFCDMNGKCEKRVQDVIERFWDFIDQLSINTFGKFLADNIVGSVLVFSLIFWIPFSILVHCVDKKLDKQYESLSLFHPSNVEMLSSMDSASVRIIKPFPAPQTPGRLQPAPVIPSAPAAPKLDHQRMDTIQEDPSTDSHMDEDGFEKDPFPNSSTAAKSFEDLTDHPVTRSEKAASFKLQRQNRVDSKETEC
Sequence of MMP-8 (Neutrophil collagenase) (P22894 101-467, species assumed): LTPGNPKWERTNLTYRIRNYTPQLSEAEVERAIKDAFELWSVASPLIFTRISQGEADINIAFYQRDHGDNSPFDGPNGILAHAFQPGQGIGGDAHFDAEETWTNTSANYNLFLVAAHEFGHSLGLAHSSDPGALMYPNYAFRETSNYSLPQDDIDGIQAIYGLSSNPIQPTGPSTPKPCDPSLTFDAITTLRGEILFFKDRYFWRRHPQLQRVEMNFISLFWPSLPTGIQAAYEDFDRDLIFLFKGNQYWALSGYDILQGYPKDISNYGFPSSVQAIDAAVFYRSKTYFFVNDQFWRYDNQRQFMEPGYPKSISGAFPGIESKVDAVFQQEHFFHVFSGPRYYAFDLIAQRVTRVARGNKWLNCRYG

SMILES	IC50 (MMP-13 (collagenase-3)) [nM]	IC50 [1] [nM]	IC50 [2] [nM]	IC50 [3] [nM]	IC50 (ADAM-10) [nM]	IC50 (MMP-3 (Stromelysin-1)) [nM]	IC50 [4] [nM]	IC50 [5] [nM]
O=C(NO)[C@H]1CN(S(=O)(=O)Cc2ccncc2)CCN1S(=O)(=O)c1cc(F)c(Oc2ccc(Cl)cc2)c(F)c1 [Entry 34]	< 50	1000 to 20000	< 50	< 50	< 50	50 to 1000		
O=C(NO)[C@H]1CN(C(=O)C(=O)N2CCOCC2)CCN1S(=O)(=O)c1cc(F)c(Oc2ccc(Cl)cc2)c(F)c1 [Entry 31]	< 50	1000 to 20000	< 50	50 to 1000	< 50	50 to 1000		
O=C(NO)[C@H]1CN(C(=O)N2CCOCC2)CCN1S(=O)(=O)c1cc(F)c(Oc2ccc(Cl)cc2)c(F)c1 [Entry 30]	< 50	1000 to 20000	< 50	50 to 1000	< 50	50 to 1000	< 50	50 to 1000
COCCOC(=O)N1CCN(S(=O)(=O)c2cc(F)c(Oc3ccc(Cl)cc3)c(F)c2)[C@@H](C(=O)NO)C1 [Entry 15]		1000 to 20000		50 to 1000		50 to 1000		

Other lines, results leading:

IC50 (MMP-13 (collagenase-3)) [nM]	IC50 [1] [nM]	IC50 [2] [nM]	IC50 [3] [nM]	IC50 (ADAM-10) [nM]	IC50 (MMP-3 (Stromelysin-1)) [nM]	IC50 [4] [nM]	IC50 [5] [nM]	SMILES
< 50	50 to 1000	< 50	< 50	< 50	< 50			CN(C)CCS(=O)(=O)N1CCN(S(=O)(=O)c2cc(F)c(Oc3ccc(Cl)cc3)c(F)c2)[C@@H](C(=O)NO)C1 [Entry 54]
< 50	1000 to 20000	< 50	50 to 1000	< 50	< 50			O=C(NO)[C@H]1CN(S(=O)(=O)NC(=O)N2CCOCC2)CCN1S(=O)(=O)c1cc(F)c(Oc2ccc(Cl)cc2)c(F)c1 [Entry 38]
< 50	1000 to 20000	< 50	50 to 1000	< 50	50 to 1000			O=C(NO)[C@H]1CN(C(=O)c2cccnc2)CCN1S(=O)(=O)c1cc(F)c(Oc2ccc(Cl)cc2)c(F)c1 [Entry 59]
< 50	1000 to 20000	< 50	50 to 1000	< 50	50 to 1000			O=C(NO)[C@H]1CN(S(=O)(=O)c2cccnc2O)CCN1S(=O)(=O)c1cc(F)c(Oc2ccc(Cl)cc2)c(F)c1 [Entry 45]
< 50	1000 to 20000	< 50	50 to 1000	< 50	< 50			O=C(NO)[C@H]1CN(S(=O)(=O)NC(=O)N2CCCCC2)CCN1S(=O)(=O)c1cc(F)c(Oc2ccc(Cl)cc2)c(F)c1 [Entry 37]
